SMILES	melting point [°C]
O=C1C2=CSCCN2C(=O)N1c1cccc(Cl)c1F	118 to 120
CC1(C)COP(=O)(O)OC1c1cccc2ccccc12 (stereo not drawn)	216 to 217
[N-]=[N+]=NCc1cc(C(F)(F)F)cc(C(F)(F)F)c1	30 to 32
Cc1c(Cl)ccc([N+](=O)[O-])c1C#N	97 to 98
CC(=O)C(=CNc1cc(Cl)c(Cl)c(C(=O)O)c1Cl)C(C)=O	242 to 244
CC12CCC(C1)C(C)(C)C2(S)CC#N (stereo not drawn)	170 to 171
COc1cccc(-c2noc3ccsc23)c1	51 to 52
IC#CCSc1cccnc1	114 to 116
N#Cc1cn(-c2ccc(Cl)c(Cl)c2)c(=O)[nH]c1=O	206 to 208
NS(=O)(=O)c1sccc1C(F)=C(F)Cl	112 to 116
CCCCC(CC)C(=O)NCCCCCCCCCCCOCC(O)CNCCO (stereo not drawn)	76.1 to 77.3
CN(CCOc1ccc([N+](=O)[O-])cc1)c1ccncc1	88 to 89
O=S(=O)(CCCl)C(c1ccccc1)S(=O)(=O)CCCl	106 to 108
CC1(C)C(C#CC(=O)OCC(Cl)(Cl)Cl)C1C(=O)OC(C#N)c1cccc(Oc2ccccc2)c1 (stereo not drawn)	101
O=C1NCCc2c(-c3ccc(Cl)cc3)[nH]c3cccc1c23	250 to 252
Oc1ccccc1CNCCCCCCCCCCCCNCc1ccccc1O	72 to 73
CCCCCCCCCc1ccc(CCCC(N)(CO)CCO)cc1 (stereo not drawn)	71 to 73
O=Cc1ccc2c(=O)c3ccccc3ccc2c1	149 to 152
CCCCCCCCCCCCCCCCCCCCCCSC[C@H](NC(=O)CCCCCCCCCCCCCCC)C(=O)O	90 to 92
CC(=O)SCC(Cc1ccccc1)C(=O)Nc1cccc(C(=O)O)c1 (stereo not drawn)	169 to 170
O=C1c2ccccc2C(=O)N1[C@H]1C=C[C@@H](O)CC1 (racemic)	126 to 129
Cc1noc(NC(=O)c2cnccc2C(F)(F)F)c1Cl	153 to 156
CSc1nnc(-c2ccccc2)n1C	134 to 135
C/C(=C\c1ccc(CO)cc1)c1ccc2c(c1)C(C)(C)CCC2(C)C	123 to 124
C#CC1(c2ccc(OC)c(OC3CCCC3)c2)CCC2(CC1)OCCO2	53.5 to 55
CCC(O)(c1ccc(O)cc1)c1ccc(Br)cc1 (stereo not drawn)	161 to 162
N#CC1=CCOc2ccc(F)cc21	114 to 115
CP(C)(=O)COC(=O)c1ccccc1Nc1cccc(C(F)(F)F)c1	85
NNC(=O)c1ccnc2[nH]ccc12	239 to 240
CC(=O)NCC1OC(n2cc(C=CBr)c(=O)[nH]c2=O)CC1Cl (stereo not drawn)	163 to 165

The remaining lines, values ahead:

melting point [°C]	SMILES
133 to 137	O=C(O)COc1cccnc1-c1ccc(Cl)c(C(=O)NCC23CC4CC(CC(C4)C2)C3)c1
137 to 139	Cc1ccc(C(CC(=O)O)c2ccc(F)cc2)cc1 (stereo not drawn)
96 to 100	CN(C)c1nc(N)nc2c1ncn2C1CC(F)C(CO)O1 (stereo not drawn)
92.5 to 94	CCOC(=O)c1cc(Cl)n2ncnc2n1
149 to 151	CC/C(=N\OCCCOc1ccc(C(=O)O)c(NC(=O)c2ccc(C(F)(F)F)cc2)c1)c1ccc(C(C)(C)C)cc1
166 to 169	O=C(Cn1c(-c2nonc2NCCCO)nc2ccccc21)c1ccc(Cl)cc1
130 to 133	CC(=O)C(=NNc1cccc2ccccc12)Sc1ccc(C(C)C)cc1
88 to 90	CCCc1c(OCCCC#CCO)ccc(C(C)=O)c1O
184	CCn1cnc2c(Nc3cccc(F)c3)nc(NCCO)nc21
229 to 230	CCOC(=O)/C=C/c1sc(-n2cnc3ccccc32)nc1C(C)C
114	CCOC(=O)c1ccc(OCCC2CCN(c3ccc(C)nn3)CC2)s1
169 to 172	COc1cc2c(=O)c(Cc3cccnc3)cn3c4cc(Br)ccc4c(c1)c23
209 to 210	Cn1ncc(/C=C/C(=O)Nc2ccc(Cc3nccs3)cc2)c1-c1ccc(F)cc1
198 to 200	COc1cc(Nc2c(C#N)cnc3cc(-c4ccc(CN5CCOCC5)c(CN5CCOCC5)c4)ccc23)c(Cl)cc1Cl
130 to 133	Cc1oc(-c2ccccc2)nc1CCOc1ccc(C=O)c2ccccc12
74	CCN(C)C(=O)c1cc(-c2ccccc2)oc1-c1ccc(OC)c(OC)c1
83	Cc1ccc2oc(-c3ccccc3[N+](=O)[O-])cc2c1
134 to 135	CCOC(=O)COc1c(Cl)c(O)c2c(c1Cl)OC1(CCCCC1)CC2=O
164 to 166	COc1ccc(C2=NN(Cc3ccc(CC(=O)O)cc3)C(=O)[C@H]3CCCC[C@@H]23)cc1OC (relative stereo)
170 to 171	COc1cc2c(cc1O)CCCC(=O)N2Cc1cc(OC)c(OC)c(OC)c1
139 to 141	Cc1ccc(NC(=O)C#Cc2ccccc2)cc1
210 to 212	CC(C)c1cccc(C(C)C)c1NC(=O)[C@H](Cc1ccccc1)NC(=O)OCC1c2ccccc2-c2ccccc21

melting point [°C]	SMILES
226 to 228	COc1ccc(C(=O)Nc2ccc(Cl)c(Cl)c2)cc1NS(C)(=O)=O
148 to 149	CCCCc1c(C)c2ccc(OCCCN3CCN(Cc4ccc(Cl)cc4)CC3)cc2[nH]c1=O
127 to 130	CCOC(=O)C1=C(C)N(C(C)=O)C(c2csc(C)n2)=NC1c1cccc(F)c1 (stereo not drawn)
156 to 158	Cc1nn(C)c2c1N(C(=O)CN1CCCCC1)c1ccccc1NC2=O
101 to 102	Cc1cc(C)c(C(CO)c2ccc(C(C)C)cc2)c(O)c1 (stereo not drawn)
93 to 95	COc1ccc(N2CCN(c3c(C)c(C)c4c(c3C)C(NCc3ccccc3)C(C)(C)O4)CC2)cc1 (stereo not drawn)
110 to 112	O=C(NCC1CCN(C[C@H]2COc3ccc(Cl)cc3O2)CC1)c1ccccn1
186 to 189	CCc1ccc(CC)n1Nc1ccc(N2CCOCC2)nn1
153 to 154	CCSc1cc2c(c(C(=O)O)c1)OCCO2
101	COC(=O)C(=CN(C)C)N(C)c1nccc(-c2ccccc2)n1
168 to 170	CC(=O)NC[C@H]1CN(c2ccc(N3C[C@H]4CN(C(C)=O)C[C@H]4C3)c(F)c2)C(=O)O1
118 to 120	CCSc1cc(C)nc(SCC)c1NC(=O)CN1CCN(CCSc2nc3ccc(COC)c(COC)c3o2)CC1
47 to 49	CCCC[C@H](OCC[C@]1(C(=O)N2CCC(OCOC)CC2)C=CC=CC1)C(=O)N[C@@H](CC1CCCCC1)[C@@H](O)C(F)(F)CN(C)C
106 to 108	COC(=O)CCS(=O)c1cc(C(C)(C)C)c(O)c(C(C)(C)C)c1 (stereo not drawn)
235 to 236	Cc1c(CN2CCc3[nH]c4ccccc4c3C2=O)ncn1C(c1ccccc1)(c1ccccc1)c1ccccc1
125	CC(C)(C)OC(=O)N1CC=C(c2ccnc(C(=O)N(O)Cc3ccccc3)c2)CC1
208 to 211	CCn1c(=O)c2[nH]c(/C=C/c3ccc(OC)c(OC)c3)nc2n(CC)c1=O
155 to 157	CNS(=O)(=O)CCCn1cnc2c(N)nc3ccccc3c21
132 to 133	CN1CCN(Cc2ccc(NC(=O)c3ccc(Cl)c(C#Cc4ccc(NC5CCC5)nn4)c3)cc2C(F)(F)F)CC1
156	CC(C)(C)c1ccc(-c2cc(=O)cc(N3CCOCC3)o2)cc1
214 to 216	COC1(OC)CN(c2c(F)cc3c(=O)c(C(=O)O)cn(C4CC4)c3c2F)CC1C (stereo not drawn)
